The values that follow come from ChEMBL document CHEMBL1201862, “PubChem BioAssay data set” (2004).

Among the test systems are SNB-75; U-251; UACC-257; M14; HL-60; CAKI-1; SN12C; HOP-62; EKVX; SW-620; LOX IMVI; HCC 2998; IGROV-1; SK-MEL-2; SR; NCI-H460; K562; HT-29; SF-295; MDA-MB-231.
What all share (assay): DTP human tumour cell line panel, 48 h

SMILES strings stand for the structures.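 Test compounds were applied to cells in 96-well plates for 48 hours at 5 doses. At the GI50, growth is halved.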 Calls of active or inactive are those of the source. No stated cut-off is given here; in the data, active = GI50 up to about 1.1 µM and inactive = higher. Non-standard residues stand in square brackets, D forms with d. Residues, ends and D or L forms follow the SMILES beside them. ξ: configuration not given here. *: point of attachment. ξNMeF = CNC(Cc1ccccc1)C(=O)O; NMeV = CN[C@H](C(=O)O)C(C)C; Boc = CC(C)(C)OC(=O)*; OBn = c1ccc(CO*)cc1 Bounds are passed on as bounds.

With `COP(=O)(OC)C(=O)N1N(c2ccc([N+](=O)[O-])cc2)C(=O)C(C)NC1(NNc1ccc([N+](=O)[O-])cc1)P(=O)(OC)OC` (configuration not stated), the GI50 (in general, the concentration that inhibits growth by half) in the assay on SNB-75 is > 100 µM (inactive); with U-251, > 100 µM (inactive); in the assay on UACC-257, > 100 µM (inactive); in the assay with M14, > 100 µM (inactive); in the assay on HL-60 it was 64.6 µM (inactive); in the assay with CAKI-1, > 100 µM (inactive). In addition, the GI50 with SN12C, with HOP-62, with EKVX, in the assay with SW-620, in the assay with LOX IMVI and in the assay with HCC 2998 was > 100 µM (inactive) throughout. For the same compound, the GI50 in the assay on IGROV-1, in the assay on SK-MEL-2, in the assay on SR, with NCI-H460 and in the assay with K562 was > 100 µM (inactive) throughout.

For the compound `CC1(C)C2=CCCC(=O)[C@@]2(C)CC[C@@H]1O`, the GI50 with HT-29, in the assay on SNB-75, in the assay on U-251, with UACC-257, in the assay on M14 and in the assay with HL-60 was > 100 µM (inactive) each time. Further, the GI50 in the assay on CAKI-1, in the assay with SN12C, in the assay on HOP-62, in the assay with EKVX, with SF-295 and in the assay on SW-620 was > 100 µM (inactive) throughout. Also, the GI50 in the assay on LOX IMVI is > 100 µM (inactive); with HCC 2998, > 100 µM (inactive); with IGROV-1, > 100 µM (inactive); in the assay with SK-MEL-2, 5.97 µM (inactive); with SR it was > 100 µM (inactive); in the assay on NCI-H460, > 100 µM (inactive). Moreover, the GI50 in the assay with K562 was > 100 µM (inactive).

Regarding `CCOC(=O)C(=Cc1ccc(Oc2ccccc2)cc1)C(=O)OCC`, the GI50 in the assay with HT-29 was 3.18 µM (inactive); in the assay with SNB-75, 2.66 µM (inactive); in the assay with U-251, 3.35 µM (inactive); in the assay on UACC-257, 2.42 µM (inactive); in the assay on M14, 3.82 µM (inactive); in the assay with HL-60, 1.73 µM (inactive). The GI50 is 14.1 µM (inactive) with CAKI-1; 2.27 µM (inactive) with SN12C; 3.28 µM (inactive) with HOP-62; 15.4 µM (inactive) with EKVX; 5.13 µM (inactive) in the assay with SF-295; 2.22 µM (inactive) in the assay with SW-620. Besides, the GI50 in the assay with LOX IMVI is 1.47 µM (inactive); in the assay with HCC 2998, 10.6 µM (inactive); with IGROV-1, 6.81 µM (inactive); with SK-MEL-2 it was 1.85 µM (inactive); in the assay with SR it was 2.52 µM (inactive); with NCI-H460 it was 18.2 µM (inactive). The GI50 with K562 is 1.87 µM (inactive).

Consider `COC(=O)[C@]1(C)C(OC)=CC(=O)C2C1[C@H]1CCC[C@@H]21` (some centres not stated), for which the GI50 in the assay on HT-29, with SNB-75, in the assay with U-251, in the assay on UACC-257, with M14 and with HL-60 was > 100 µM (inactive) throughout. Moreover, the GI50 with CAKI-1, in the assay on SN12C, with HOP-62, in the assay on EKVX, in the assay with SF-295 and with LOX IMVI was > 100 µM (inactive) in each case. Further, the GI50 in the assay with HCC 2998, in the assay with IGROV-1, in the assay on SK-MEL-2, in the assay with SR, in the assay with NCI-H460 and in the assay with K562 was > 100 µM (inactive) each time.

Regarding `Cc1ccc(-c2cc(=O)c3cc(C)c(C)c(C(=O)O)c3o2)cc1C`, the GI50 in the assay with HT-29, with SNB-75, in the assay on U-251, in the assay with UACC-257, with M14 and with HL-60 was > 100 µM (inactive) each time. The GI50 in the assay on CAKI-1 is 28.4 µM (inactive); with SN12C, > 100 µM (inactive); in the assay with HOP-62, > 100 µM (inactive); in the assay with EKVX, > 100 µM (inactive); with SF-295 it was > 100 µM (inactive); with SW-620, > 100 µM (inactive). The GI50 with LOX IMVI, with HCC 2998, in the assay on IGROV-1, with SK-MEL-2, in the assay on SR and in the assay on NCI-H460 was > 100 µM (inactive) throughout. The GI50 in the assay on K562 was > 100 µM (inactive).

As for `C[C@]12CC[C@H]3[C@@H](CCC4=CC(=O)CC[C@@]43C)[C@@H]1CC[C@@H]2OC(=O)c1cccc2c(=O)c3ccccc3[nH]c12`, the GI50 is 43.8 µM (inactive) with HT-29; 13.9 µM (inactive) in the assay with SNB-75; 61.2 µM (inactive) with U-251; 99.5 µM (inactive) in the assay with UACC-257; > 100 µM (inactive) in the assay with M14; > 100 µM (inactive) in the assay on SN12C. Besides, the GI50 with MDA-MB-231 was > 100 µM (inactive); in the assay on HOP-62, 63.5 µM (inactive); in the assay with EKVX, 7.57 µM (inactive); with SF-295, > 100 µM (inactive); in the assay with SW-620, > 100 µM (inactive); in the assay on LOX IMVI it was 26.9 µM (inactive). The GI50 was 25.2 µM (inactive) in the assay with HCC 2998; > 100 µM (inactive) with IGROV-1; > 100 µM (inactive) in the assay with SK-MEL-2; 46.8 µM (inactive) with NCI-H460; 16.3 µM (inactive) with K562.

Regarding `COc1ccc(C2CC(=O)CC(c3ccc(OC)cc3)C23C(=O)NC(=S)NC3=O)cc1` (configuration not stated), the GI50 in the assay with HT-29, with SNB-75, in the assay on U-251, in the assay with UACC-257, in the assay with M14 and in the assay with HL-60 was > 100 µM (inactive) throughout. Besides, the GI50 in the assay with CAKI-1, in the assay on SN12C, in the assay with HOP-62, in the assay with EKVX, in the assay on SF-295 and in the assay with SW-620 was > 100 µM (inactive) throughout. Also, the GI50 in the assay on LOX IMVI, with HCC 2998, in the assay on IGROV-1, in the assay on SK-MEL-2, in the assay on SR and with NCI-H460 was > 100 µM (inactive) each time. Moreover, the GI50 with K562 was > 100 µM (inactive).

As for `CC(C)(C)NNC(=O)/C(=C/c1ccc(Oc2ccc(Cl)c(Cl)c2)cc1)NC(=O)c1ccccc1`, the GI50 was > 100 µM (inactive) in the assay with HT-29; > 100 µM (inactive) with SNB-75; > 100 µM (inactive) in the assay on U-251; > 100 µM (inactive) with UACC-257; > 100 µM (inactive) in the assay on M14; 40.5 µM (inactive) in the assay with HL-60. Besides, the GI50 in the assay on CAKI-1 was > 100 µM (inactive); with SN12C, > 100 µM (inactive); with HOP-62, > 100 µM (inactive); in the assay with EKVX, > 100 µM (inactive); with SF-295, > 100 µM (inactive); in the assay on LOX IMVI, 18.9 µM (inactive). Moreover, the GI50 is > 100 µM (inactive) in the assay with HCC 2998; > 100 µM (inactive) with IGROV-1; > 100 µM (inactive) with SK-MEL-2; 16.9 µM (inactive) in the assay with SR; 40.6 µM (inactive) in the assay on NCI-H460; 42.5 µM (inactive) in the assay with K562.

For `COP1(=O)Oc2ccccc2C(=O)C(C(F)(F)F)(C(F)(F)F)O1` (configuration not stated), the GI50 in the assay on HT-29, in the assay on SNB-75, in the assay with U-251, in the assay on UACC-257, with M14 and in the assay on HL-60 was > 100 µM (inactive) throughout. Further, the GI50 in the assay with CAKI-1 is 50.6 µM (inactive); in the assay on SN12C, > 100 µM (inactive); in the assay with HOP-62 it was > 100 µM (inactive); in the assay with EKVX, > 100 µM (inactive); in the assay on SF-295, > 100 µM (inactive); in the assay with SW-620, > 100 µM (inactive). For the same compound, the GI50 in the assay on LOX IMVI is > 100 µM (inactive); with HCC 2998, 0.577 µM (active); in the assay with IGROV-1, > 100 µM (inactive); in the assay on SK-MEL-2, > 100 µM (inactive); in the assay on SR, > 100 µM (inactive); in the assay with NCI-H460, > 100 µM (inactive). Further, the GI50 in the assay with K562 is > 100 µM (inactive).

As to `CC(C)[C@@H](C(=O)N(C)[C@H](C(=O)N1CCC[C@H]1C(=O)OCc1ccccc1)C(C)C)N(C)C(=O)C(Cc1ccccc1)N(C)C(=O)[C@H](NC(=O)OC(C)(C)C)C(C)C` (some centres not stated) (Boc-[dV][ξNMeF][NMeV][NMeV]P-OBn), the GI50 with HT-29 was > 31.6 µM (inactive); with SNB-75, 14 µM (inactive); with U-251, > 31.6 µM (inactive); in the assay on UACC-257, > 31.6 µM (inactive); in the assay on HL-60 it was 19 µM (inactive); in the assay with CAKI-1, > 31.6 µM (inactive). The GI50 is > 31.6 µM (inactive) with HOP-62; > 31.6 µM (inactive) in the assay on EKVX; 26.5 µM (inactive) in the assay with SF-295; > 31.6 µM (inactive) in the assay on SW-620; > 31.6 µM (inactive) with LOX IMVI; > 10 µM (inactive) with HCC 2998. Moreover, the GI50 in the assay on IGROV-1 is > 31.6 µM (inactive); with SK-MEL-2 it was > 31.6 µM (inactive); in the assay on SR it was 19.7 µM (inactive); with NCI-H460 it was > 31.6 µM (inactive); in the assay with K562, 13.5 µM (inactive).
